Laboratory results reported in patent publication US10495630B2, “Methods for the determination of compounds or compositions for the treatment of lipofuscin related diseases and compounds or compositions” (KATAIRO GMBH, priority 2014, dated 2019).
Read-outs that look alike come from different tables or passages of the source.

How the values were obtained:
[1] = test system: Abca4 (−/−) mice; assay: A2E concentration in eyes of Abca4 (−/−) mice after intravitreal injection, HPLCMSMS; format: in vivo; conditions: for response vs control in vivo at 20000 µg/mL: Mus musculus, read-out: % of A2E relative to age matched untreated
Text: […] […] The left eye was not treated and maintained as a control. Untreated eyes of age-matched mice lacking the Abca4 transporter were an additional control.
The concentration in each treated eye was then expressed as a percentage of the average concentration in all untreated eyes in the mice of the same age.
The left eye was not treated and maintained as a control. Untreated eyes of age-matched mice lacking the Abca4 transporter were an additional control.
The left eye was not treated and maintained as a control. Untreated eyes of age-matched mice lacking the Abca4 transporter were an additional control. […] Tryptophan is capable of absorbing and re-radiating light energy, as is riboflavin.
Water solutions were diluted 1:3 with acetonitrile and then sealed in vials for injection. 6 μL of the water acetonitrile solutions were injected onto a 2×50 mm Phenyl derived HPLC column (3 μm) and eluted with a gradient from 20% acetonitrile to 100% acetonitrile over 4 minutes at a flow rate of 500 μL/minute.

[2] = Solubility remark on the test substance; format: physicochemical; conditions: compared with the other tetracycline test substances, 20 mg/ml solution or suspension
[3] = test system: human retinal pigment epithelium (RPE) cells; assay: Degradation of lipofuscin in human RPE cells (micrographs after one week); format: cell-based; conditions: test compound alone (SAD 50 μg/ml; cardioxane 10, 50 or 100 μM), one week incubation
Experimental: To explore the role of the reactive chemical species the human retinal pigment epithelium (RPE) cells were treated with the super oxide anion donor (SAD) soraprazan ((7R,8R,9R)-2,3-Dimethyl-8-hydroxy-7-ethoxy-9-phenyl-7,8,9,10-tetrahydro-imidazo-[1,2-h][1,7]-naphthyridin)—a member of the THPE family—either alone or in combination with a known radical oxygen scavenger, cardioxane.
After growing the hRPE-cells to confluence, the test compounds were added to seven cell cultures and the cells were incubated at 37° C. and 5% CO2. The SAD was added to the cell cultures in a concentration of 50 μg/ml either alone or in combination with cardioxane in a concentration of 10 μM, 50 μM or 100 μM. Additionally, three cell cultures were incubated only with cardioxane in a concentration of 10 μM, 50 μM or 100 μM. As control, one cell culture was grown without test compounds.
After one week of incubation micrographs of the differently incubated RPE cells were taken as shown in FIG. 2A to H. In the original images, lipofuscin in cells is visible as a yellow-gold-orange fluorescent structure, before a blue background. In the grey scale reproduction in FIG. 2 the yellow-gold-orange structure appear light grey (yellow) or dark grey (gold-orange) before a grey background. Areas of degradation of lipofuscin in the hRPE cells appears as bright blue to whitish structures which appear white in the in the grey scale reproduction and are circled in FIG. 2A.
The bright blue structures are only observed in the experimental set up with SAD alone (FIG. 2A).

[4] = In vitro (cell-free) degradation of A2E in aqueous solution, LCMS; format: biochemical; conditions: for A2E / A2E (% control): A2E 20 μM + verteporfin 25 μM; for A2E (% control): control = A2E non-illuminated
Experimental: The degradation of N-retinylidene-N-retinylethanolamine (A2E)—component of lipofuscin—in an aqueous solution water was measured in the presence of potential degradation mediators and light illumination.
In a cell-free assay, A2E was dissolved in deionized H2O in a concentration of 20 μM and the solution was divided into two parts. To one part of the A2E solution verteporfin was added in an amount of 25 μM. […]
The amounts of A2E and its epoxides (A2E+O, A2E+2O) remaining were quantified by combined liquid chromatography and mass spectroscopy (LCMS) using the transitions indicated in Table 1.

[5] = test system: melanin A2E particles; assay: Assay for binding to A2E melanin particles; design: species or system S. officinalis; conditions: FIG. 3A; 37° C., 4 h
Experimental: To study the binding of A2E to melanin, a suspension of 2 mg/ml natural melanin (S. officinalis) is prepared in PBS, pH 7.4. The melanin suspension is brought to 37° C. and sonicated for 15 min to form a uniform suspension. The melanin suspension (0.75 ml) is measured in aliquots into glass test tubes (12×75 mm) under continuous shaking to avoid sedimentation. The solution of A2E (0.75 ml) is added to the above-mentioned melanin aliquots, and the tubes will be incubated in a shaker incubator at 37° C. and 300 rpm for 4 h.
Controls are prepared by incubating A2E in the absence of melanin in incubation medium and by incubating melanin without A2E. Compounds are added to melanin suspension from stock solutions. After incubation, the suspensions are centrifuged at 13,000 rpm for 15 min at room temperature to remove the melanin granules. The supernatant is collected, diluted with acetonitrile and analyzed by an LC-MS/MS method to determine the concentration of […] in the supernatant. The kinetic parameters of binding study, i.e., maximal binding capacity (rmax) and the binding affinity (k) are determined for A2E according to the previously reported method (Cheruvu et al., 2008).
A high percentage of soraprazan and demethoxysoraprazan—about 46% and about 53%, respectively—are found bound to the melanin A2E particles.

[6] = test system: RPE cells; conditions: healthy monkeys, human RPE cells from aged donors, mouse model for Stargardt's Disease; EP 2080513 A1 and literature; cited from earlier work
[7] = test system: HuRPE, RPE cells isolated from human donor eyes that contain melanin and lipofuscin; assay: Cellular verteporfin uptake in HuRPE cells; format: in vitro ADME; conditions: for Verteporfin in the cells after incubation: medium with 278 nM Verteporfin
Experimental: (§1) For testing factors influencing the cellular uptake of verteporfin to two cell types used:
HuRPE, RPE cells isolated from human donor eyes that contain melanin and lipofuscin
(§2) The cells were treated with 200 μl of a culture medium that contained 278 nM Verteporfin for the indicated time, the culture medium was discarded, the cells trypsinized, resuspended in 500 μl medium and counted.

[8] = test system: ARPE-19, a human RPE cell line that lacks melanin and lipofuscin; assay: Cellular verteporfin uptake in ARPE-19 cells; format: in vitro ADME; conditions: for Verteporfin in the cells after incubation: medium with 278 nM Verteporfin
Experimental: as §1
ARPE-19, a human RPE cell line that lacks melanin and lipofuscin
as §2

[9] = test system: patient with putative dry AMD; assay: Clinical use of the photosensitizer to treat AMD, blue light laser retinal fluorescence; format: in vivo; conditions: intravenous 6 mg/m^2 or ca 4 μg intravitreal; days 7, 14 and 28 versus pre-treatment
Experimental: A patient with putative dry AMD is examined and baseline retinal fluorescence is determined using the blue laser imaging device (Heidelberg engineering). The patient is subject to an intravenous dose of 6 mg/m^2 verteporf in by means of infusion of 30 ml over 10 minutes. An alternative to intravenous application is the direct intravitreal application of verteporf in. In this case, ca 4 μg of verteporfin is administered to an affected single eye. Fluorescence after 1, 2 and 4 weeks is compared with fluorescence at baseline. The eyes are treated alternately.
In the standard verteporfin treatment, fifteen minutes after the start of the infusion, a laser light at 689 nm delivered 50 J/cm^2 by application of an intensity of 600 mW/cm^2 over 83 seconds using a spot size with a diameter 1000 μm. […] After administration of verteporfin to a patient an exposure of the eyes of the patient to mild indoor light of about 500 lux. Alternatively, low filtering sunglasses can be used as a means to maintain an exposure of the eyes of the patient to 500 lux when outdoors. The exposure should be maintained for a period of at least 6 h per day.
Blue light laser retinal fluorescence is measured at days 7, 14 and 28 after treatment and compared with pre-treatment values. Specific reductions of retinal fluorescence>1-20% are on post-treatment examination. […]

[10] = test system: Abca4 (−/−) mice; assay: Verteporfin injection into the vitreous of Abca4 (−/−) mice, micrographs of semi-thin sections; format: in vivo; conditions: 2 μl intravitreal, 12 month old mice, four weeks after injection, normal daylight
Experimental: 2 μl of a Verteporfin solution were injected into the vitreous of eyes from Abca4 (−/−) mice (12 month old) which lack the Abca4 transporter in the disk membranes of photoreceptors. Four weeks after injection the eyes of the mice were enucleated, embedded into the epoxy resin Epon™ and cut into semi-thin sections. As a control eyes of age-matched untreated mice lacking the Abca4 transporter were prepared in the same way. […] The RPE cell layer is marked by arrows in the Figure. Comparing the micrographs of the semi-thin section of eyes of untreated (FIG. 5a) and treated (FIG. 5b) mice the cytoplasm of the RPE cells of untreated mice appears much denser due to the targeting of confluent lipofuscin components. […] In treated eyes predominately melanin granules remained in the cytoplasm of RPE cells.

[11] = redox active small molecules and chelator, intravitreal 2 μl of 20 mg/ml, 16 hours after injection
[12] = dyes and porphyrins, intravitreal 2 μl of 2 mg/mL, one week after injection

CN(C)[C@@H]1C(O)=C(C(N)=O)C(=O)[C@@]2(O)C(O)=C3C(=O)c4c(O)ccc(Cl)c4[C@@H](O)[C@H]3C[C@@H]12 [Demeclocycline]
response vs control in vivo at 20000 µg/mL ([1]; 168 h, tetracycline antibiotics, intravitreal 2 μl of 20 mg/ml, one week after injection): 89%
Concentration A2E (μM) in the treated eye ([1]; tetracycline antibiotics, intravitreal 2 μl of 20 mg/ml, one week after injection): 37 µM
Solubility [2]: notably less soluble

COCCO[C@@H]1c2ccn3c(C)c(C)nc3c2N[C@H](c2ccccc2)[C@H]1O [Soraprazan, (7R,8R,9R)-2,3-Dimethyl-8-hydroxy-7-(2-methoxyethoxy)-9-phenyl-7,8,9,10-tetrahydro-imidazo[1,2-h] [1,7]naphthyridine]
Degradation / removal of lipofuscin in hRPE cells [3]: removal of lipofuscin
Degradation of the lipofuscin component A2E in cell free systems ([4]; cell free, in solution under illumination by visible light): degraded
Proportion of compound bound to the melanin A2E particles after incubation [5]: about 46%
response vs control in vivo at 20000 µg/mL [1, 11]: 61%
Concentration A2E (μM) in the treated eye [1, 11]: 31 µM
Removal of natural lipofuscin from RPE cells [6]: remove natural lipofuscin from RPE cells

verteporfin
A2E ([4]; 689 nm, 83 s): 14.338 µM
A2E (% control) ([4]; 689 nm, 83 s): 44 % control
A2E ([4]; non-illuminated, 5 min): 28.864 µM
A2E (% control) ([4]; non-illuminated, 5 min): 89 % control
A2E ([4]; white light, 5 min): 1.295 µM
A2E (% control) ([4]; white light, 5 min): 4 % control
Proportion of compound bound to the melanin A2E particles after incubation [5]: bind to the A2E melanin particles although to a lower percentage
Verteporfin in the cells after incubation ([7]; HuRPE, 1 h): 339 nM
Verteporfin in the cells after incubation ([7]; HuRPE, 18 h): 1206 nM
Increase of verteporfin concentration in the cells after 18 h ([7]; HuRPE, 18 h versus 1 h): about four-fold
Concentration of verteporfin in HuRPE compared to ARPE-19 ([7]; after 1 h of incubation): more than two-fold
Verteporfin in the cells after incubation ([8]; ARPE-19, 1 h): 159 nM
Verteporfin in the cells after incubation ([8]; ARPE-19, 18 h): 351 nM
Increase of verteporfin concentration in the cells after 18 h ([8]; ARPE-19, 18 h versus 1 h): about two-fold
Specific reductions of retinal fluorescence [9]: 1-20%
Removal of lipofuscin from the cytoplasm of RPE cells [10]: substantial amounts of lipofuscin and melanolipofuscin were removed from the cytoplasm of RPE cells
% of A2E relative to age matched untreated [1, 12]: 90%
Concentration A2E (μM) in the treated eye [1, 12]: 27 µM
